pIC50, pKi: −log10 of the molar value. Active and inactive are the calls of the source. The rule behind the calls is not given here.

Usually pKi stands for the negative decadic logarithm of the Ki, by convention in mol/L. The pIC50 is the IC50 on a negative log10 scale, so that one unit is a factor of ten. By Papp A→B is commonly meant how fast a substance crosses the layer from the apical side. What is called half-life is how long it takes for the measured level to halve. In general, Papp refers to a coefficient for how fast a substance crosses the barrier.

Data set [1] concerns the target T1, Orexin/Hypocretin receptor type 1 (Homo sapiens, UniProt O43613).
T1 sequence (O43613 whole entry): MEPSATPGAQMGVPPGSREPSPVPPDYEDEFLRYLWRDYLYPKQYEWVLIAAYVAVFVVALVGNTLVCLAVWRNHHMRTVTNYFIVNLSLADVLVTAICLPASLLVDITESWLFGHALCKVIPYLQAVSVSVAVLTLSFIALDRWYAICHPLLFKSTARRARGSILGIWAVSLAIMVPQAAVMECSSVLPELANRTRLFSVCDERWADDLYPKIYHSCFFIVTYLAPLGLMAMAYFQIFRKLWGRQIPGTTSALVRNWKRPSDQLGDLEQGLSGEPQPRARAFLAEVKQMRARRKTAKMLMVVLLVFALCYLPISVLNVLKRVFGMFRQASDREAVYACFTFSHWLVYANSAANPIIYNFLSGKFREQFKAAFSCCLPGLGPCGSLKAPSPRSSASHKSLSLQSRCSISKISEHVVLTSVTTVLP
Put plainly: Antagonist activity at human OX1R expressed in CHO-K1 cells assessed as inhibition of orexin-A-induced increase in calcium mobilization preincubated for 15 mins followed orexin-A stimulation by Fura-2-AM dye based fluorescence assay. It is filed as functional, cell-based. For orientation: A change in cytosolic calcium serves as a functional read-out for many receptors and channels.

Another data set deals with T2, Orexin receptor type 2 (Homo sapiens, UniProt O43614).
T2 sequence (O43614 whole entry): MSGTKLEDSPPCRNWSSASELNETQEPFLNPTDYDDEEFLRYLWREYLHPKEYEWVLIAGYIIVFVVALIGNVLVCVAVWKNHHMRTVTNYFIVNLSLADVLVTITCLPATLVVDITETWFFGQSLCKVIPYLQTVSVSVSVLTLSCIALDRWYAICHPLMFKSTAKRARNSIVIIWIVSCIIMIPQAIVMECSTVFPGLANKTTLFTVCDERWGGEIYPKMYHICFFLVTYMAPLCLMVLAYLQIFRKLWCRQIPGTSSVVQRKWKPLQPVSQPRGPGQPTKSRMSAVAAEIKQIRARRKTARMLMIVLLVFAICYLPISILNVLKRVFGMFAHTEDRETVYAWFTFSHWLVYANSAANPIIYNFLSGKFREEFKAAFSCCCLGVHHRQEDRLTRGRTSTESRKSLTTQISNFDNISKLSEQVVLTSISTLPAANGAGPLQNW
Put plainly: Antagonist activity at human OX2R expressed in CHO-K1 cells assessed as inhibition of orexin-A-induced increase in calcium mobilization preincubated for 15 mins followed orexin-A stimulation by Fura-2-AM dye based fluorescence assay. It is filed as functional, cell-based.

Data set [2] is described as follows: Drug concentration in C57BL/6J mouse brain at 10 mg/kg, ip measured after 0.5 hrs by LC-MS/MS analysis. As to conditions: in vivo. It counts as ADME, organism-based.
Data set [3] can be described thus: Apparent permeability across apical to basolateral side in human Caco-2 cells at pH 7.4. As to conditions: Caco-2, pH 7.4. It counts as ADME, cell-based. (Caco-2 monolayers are a common model of the intestinal barrier.)
Data set [4] can be described thus: Metabolic stability in pooled human liver microsomes assessed as half-life […] preincubated for 5 mins followed by NADPH addition and measured upto 60 mins by HPLC-MS/MS analysis. It is filed as ADME, Microsome. As to conditions: time < 65 min. On the technique in general: Microsomes from liver hold many membrane-bound enzymes, among them those of drug oxidation.

In data set [5] the test system is Mus musculus. In words: Effect on locomotor activity in ip dosed ICR mouse assessed as suppression of orexin-induced enhancement of locomotor activity pretreated with compound for 30 mins followed by orexin stimulation by infrared light beam-braking system locomotor recording system. It is filed as functional, organism-based. As to conditions: dose 3-10 mg/kg, DDE = dose-dependent effect.

Data set [6] is described as follows: Metabolic stability in pooled human liver microsomes assessed as intrinsic clearance […] preincubated for 5 mins followed by NADPH addition and measured upto 60 mins by HPLC-MS/MS analysis. As to conditions: time < 65 min, read-out: CLH. It counts as ADME, Microsome.
A short description of data set [7]: Passive apparent permeability in MDCK cells. As to conditions: dog. It is filed as ADME, cell-based, Canis lupus familiaris.
For data set [8], the system named is Mus musculus. Put plainly: Sleep inducing activity in C57BL/6J mouse assessed as decrease in total time of wakefulness during dark phase at 10 mg/kg, ip measured at 12 to 18 hrs by EEG/EMG analysis. It counts as functional, organism-based. Particulars: time 12-18 hrs.
For data set [9], the system named is Mus musculus. In words: Sleep inducing activity in C57BL/6J mouse assessed as increase in total time of NREM sleep during dark phase at 10 mg/kg, ip measured at 12 to 18 hrs by EEG/EMG analysis. It is filed as functional, organism-based. Particulars: time 12-18 hrs.
A short description of data set [10]: Apparent permeability across apical to basolateral side in human Caco-2 cells at pH 7.4 in the presence of 1% BSA. It is filed as ADME, cell-based. As to conditions: Caco-2, pH 7.4.

Turning to `C[C@]1(c2cccc(NC(=O)c3ccccc3)c2)O[C@H]2CO[C@@H]3N2[C@H]1O[C@]3(C)c1cccc(NC(=O)c2ccccc2)c1`, the pKi in data set [1] was 7.60. Besides, on Orexin receptor type 2, the negative-log IC50 (pIC50) was less than 5.00.

For `COc1ccc(C(=O)Nc2cccc(C3(C)OC4COC5N4C3OC5(C)c3cccc(NC(=O)c4ccc(OC)cc4)c3)c2)cc1` (mixture of isomers), the pKi in data set [1] is 7.93.

`CN(C)c1ccccc1C(=O)Nc1cccc([C@@]2(C)O[C@H]3CO[C@@H]4N3[C@H]2O[C@]4(C)c2cccc(NC(=O)c3ccccc3N(C)C)c2)c1`: in data set [1], the pKi is 6.20. In addition, the negative-log IC50 (pIC50) at Orexin receptor type 2 was less than 5.00.

`COc1ccc(C(=O)Nc2cccc([C@@]3(C)O[C@H]4CO[C@@H]5N4[C@H]3O[C@]5(C)c3cccc(NC(=O)c4ccc(OC)cc4)c3)c2)cc1` came in with a Ct in [2] of 33.9 pmol/g. For the same compound, in [1], the pKi was 8.73. Moreover, the apparent permeability from apical to basolateral (Papp A→B) in data set [3] is 11.9 ×10⁻⁶ cm/s. Also, in data set [4], the half-life was found to be 39 min. Moreover, the Activity result with Mus musculus [5] was “Dde”. For the same compound, the microsomal CLint in [6] was 183 µL/min/mg. Also, in [7], the Papp was more than 10 ×10⁻⁶ cm/s.

In the case of `COc1ccccc1C(=O)Nc1cccc([C@]2(C)O[C@@H]3N4[C@H](CO[C@H]42)O[C@@]3(C)c2cccc(NC(=O)c3ccccc3)c2)c1`, the pKi is 7.74 in data set [1] and 7.25 at Orexin receptor type 2.

On to `COc1ccc(C(=O)Nc2cccc([C@]3(C)O[C@@H]4CO[C@H]5N4[C@@H]3O[C@@]5(C)c3cccc(NC(=O)c4ccc(OC)cc4)c3)c2)cc1`, for which the pKi in [1] was 8.66.

For `C[C@@]1(c2cccc(NC(=O)c3cccnc3)c2)O[C@H]2CO[C@@H]3N2[C@H]1O[C@@]3(C)c1cccc(NC(=O)c2cccnc2)c1`, the negative-log Ki (pKi) in data set [1] was 6.16; at Orexin receptor type 2, 6.58.

For the compound `CN(C)c1cccc(C(=O)Nc2cccc([C@]3(C)O[C@H]4CO[C@@H]5N4[C@H]3O[C@@]5(C)c3cccc(NC(=O)c4cccc(N(C)C)c4)c3)c2)c1`, the pIC50 (in data set [1]; at Orexin receptor type 2) was less than 5.00 throughout.

Consider `CN(C)c1ccc(C(=O)Nc2cccc([C@]3(C)O[C@H]4CO[C@@H]5N4[C@H]3O[C@@]5(C)c3cccc(NC(=O)c4ccc(N(C)C)cc4)c3)c2)cc1`, for which the pIC50 (in [1]; at Orexin receptor type 2) was less than 5.00 throughout.

For `CN(C)c1cccc([C@]2(C)O[C@H]3CO[C@@H]4N3[C@H]2O[C@@]4(C)c2cccc(N(C)C)c2)c1`, the pIC50 in data set [1] is less than 5.00. In addition, on Orexin receptor type 2, the negative-log Ki (pKi) is 6.18.

Regarding `COc1ccc(C(=O)Nc2cccc([C@]3(C)O[C@H]4CO[C@@H]5N4[C@H]3O[C@@]5(C)c3cccc(NC(=O)c4ccc(OC)cc4)c3)c2)cc1`, the Ct in data set [2] was 54.7 pmol/g. The result in the data set on Mus musculus [8] and with Mus musculus [9] was Active. In [1], the negative logarithm of the Ki (pKi) is 8.40. Besides, in data set [4], the half-life was 38 min. Also, in data set [10], the apparent permeability from apical to basolateral (Papp A→B) was 1.4 ×10⁻⁶ cm/s. In addition, the microsomal CLint in data set [6] is 184 µL/min/mg.

`COc1cccc(C(=O)Nc2cccc([C@@]3(C)O[C@H]4CO[C@@H]5N4[C@H]3O[C@]5(C)c3cccc(NC(=O)c4ccccc4OC)c3)c2)c1`: the negative logarithm of the Ki (pKi) in [1] is 7.48.

On to `C[C@@]1(c2cccc(NC(=O)c3ccccn3)c2)O[C@H]2CO[C@@H]3N2[C@H]1O[C@@]3(C)c1cccc(NC(=O)c2ccccn2)c1`, for which the negative-log Ki (pKi) was 7.83 in data set [1] and 7.16 on Orexin receptor type 2.

`CN(C)c1cccc(C(=O)Nc2cccc([C@@]3(C)O[C@H]4CO[C@@H]5N4[C@H]3O[C@]5(C)c3cccc(NC(=O)c4cccc(N(C)C)c4)c3)c2)c1`: in data set [1], the pKi was 8.11. In addition, the negative logarithm of the IC50 (pIC50) at Orexin receptor type 2 is less than 5.00.

Regarding `CC(C)(C)OC(=O)Nc1cccc([C@]2(C)O[C@H]3CO[C@@H]4N3[C@H]2O[C@@]4(C)c2cccc(NC(=O)OC(C)(C)C)c2)c1`, the pKi in data set [1] is 7.47; on Orexin receptor type 2, 6.74.

In the case of `COc1cccc(C(=O)Nc2cccc([C@@]3(C)O[C@H]4CO[C@@H]5N4[C@H]3O[C@]5(C)c3cccc(NC(=O)c4cccc(OC)c4)c3)c2)c1`, the negative logarithm of the Ki (pKi) in [1] was 8.54. On Orexin receptor type 2, the negative logarithm of the IC50 (pIC50) is less than 5.00.

Take `COc1ccc(C(=O)Nc2cccc([C@@]3(C)O[C@@H]4CO[C@H]5N4[C@@H]3O[C@]5(C)c3cccc(NC(=O)c4ccc(OC)cc4)c3)c2)cc1`: in [1], the pKi was 6.96.

With `C[C@]1(c2cccc(NC(=O)c3ccccn3)c2)O[C@H]2CO[C@@H]3N2[C@H]1O[C@]3(C)c1cccc(NC(=O)c2ccccn2)c1`, the pKi in data set [1] is 7.74. For the same compound, at Orexin receptor type 2, the negative logarithm of the IC50 (pIC50) is less than 5.00.

Take `C[C@]1(c2cccc(NC(=O)c3ccncc3)c2)O[C@H]2CO[C@@H]3N2[C@H]1O[C@]3(C)c1cccc(NC(=O)c2ccncc2)c1`: the pKi in data set [1] is 6.98. Besides, on Orexin receptor type 2, the negative-log IC50 (pIC50) was less than 5.00.

As to `C[C@@]1(c2cccc(NC(=O)c3ccccc3)c2)O[C@H]2CO[C@@H]3N2[C@H]1O[C@@]3(C)c1cccc(NC(=O)c2ccccc2)c1`, the pKi in data set [1] is 7.63; at Orexin receptor type 2, 7.82.

On to `C[C@@]1(c2cccc(NS(=O)(=O)c3ccccc3)c2)O[C@H]2CO[C@@H]3N2[C@H]1O[C@]3(C)c1ccc(NS(=O)(=O)c2ccccc2)cc1`, for which the pIC50 in data set [1] was less than 5.00. The negative-log Ki (pKi) on Orexin receptor type 2 was 6.65.

On to `C[C@@]1(c2cccc(NC(=O)c3ccncc3)c2)O[C@H]2CO[C@@H]3N2[C@H]1O[C@@]3(C)c1cccc(NC(=O)c2ccncc2)c1`, for which the pIC50 in data set [1] was less than 5.00. The pKi at Orexin receptor type 2 was 6.75.

Consider `CN(C)c1ccccc1C(=O)Nc1cccc([C@]2(C)O[C@H]3CO[C@@H]4N3[C@H]2O[C@@]4(C)c2cccc(NC(=O)c3ccccc3N(C)C)c2)c1`, for which the negative-log IC50 (pIC50) (in [1]; on Orexin receptor type 2) was less than 5.00 throughout.

With `COc1ccc(C(=O)Nc2cccc(C3(C)OC4COC5N4C3OC5(C)c3cccc(NC(=O)c4ccc(OC)cc4)c3)c2)cc1` (racemic), the pKi in data set [1] was 8.31.

As for `C[C@]1(c2cccc(NC(=O)c3cccnc3)c2)O[C@H]2CO[C@@H]3N2[C@H]1O[C@]3(C)c1cccc(NC(=O)c2cccnc2)c1`, the negative logarithm of the Ki (pKi) in data set [1] was 7.28. The pIC50 on Orexin receptor type 2 is less than 5.00.

On to `CN(C)c1ccc(C(=O)Nc2cccc([C@@]3(C)O[C@H]4CO[C@@H]5N4[C@H]3O[C@]5(C)c3cccc(NC(=O)c4ccc(N(C)C)cc4)c3)c2)cc1`, for which the negative logarithm of the Ki (pKi) in data set [1] is 8.41. Moreover, the pIC50 on Orexin receptor type 2 was less than 5.00.

As for `COc1cccc(C(=O)Nc2cccc([C@]3(C)O[C@@H]4N5[C@H](CO[C@H]53)O[C@@]4(C)c3cccc(NC(=O)c4ccccc4)c3)c2)c1`, the pKi is 8.12 in [1] and 8.27 on Orexin receptor type 2.

For the origin of these results see ChEMBL document CHEMBL5113495, “Discovery of novel orexin receptor antagonists using a 1,3,5-trioxazatriquinane bearing multiple effective residues (TriMER) library” (Eur J Med Chem, 2022).
